Here are results for 1 molecule from patent publication US7674429B2, “Electrostatic disinfectant delivery” (JohnsonDiversey, Inc., priority 2001, dated 2010).

Data set [1] in a line: Conductivity measurement (Accumet Basic AV30, two cell probe). The format is physicochemical. The method, then:
(§1) Various disinfectant compositions were measured to determine associated viscosity, conductivity and/or delivery rate parameters. Viscosity measurements were conducted with a Brookfield DV-III rheometer using procedures well known to those skilled in the art. Conductivity measurements were taken using a conductivity meter (Accumet Basic AV30) instrument using a two cell conductivity probe (epoxy body with a cell constant of 1.0). Delivery rates were determined with a preferred electrostatic delivery apparatus, available through In-Vironmental Integrity, Inc. of Minneapolis, Minn. under the “Aromasys” trademark using standard procedures and protocols.

Data set [2] is described as follows: Viscosity measurement (Brookfield DV-III rheometer). The data set is classed as physicochemical. The protocol:
as §1

Each structure is given as a SMILES string.

Turning to `OCCOCCOCCO` [triethylene glycol], in data set [1], the conductivity came to 0.354 uS/cm. In data set [2], the viscosity is given as 51.5 cps.
